Laboratory results as given in the METLIN SMRT retention time set (Domingo-Almenara et al. 2019).

Assay: gradient 5% acetonitrile 3 min, to 50% in 2 min, to 85% in 15 min, held 3 min, 100 µL/min
Conditions: column: Zorbax Extend-C18 2.1 x 50 mm; eluents: water / acetonitrile, 0.1% formic acid
How it was run: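 Values are retention times taken from adduct peaks that software picked and an analyst inspected. The pure standards were run as mixtures of ~100 molecules on HPLC linked to a quadrupole time-of-flight mass spectrometer, in positive and negative ionization mode. A Zorbax Extend-C18 column (2.1 × 50 mm, 1.8 μm) was used at 100 μL/min with water and acetonitrile, each including 0.1% formic acid.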

SMILES | RP-LC retention time [s]
COc1ccc(C2(CNC(=O)Cc3cccs3)CCOCC2)cc1 | 734
CCOCC(=O)N1CCCC1CCc1ncc(C)n1C(C)C (stereo unspecified) | 574
COc1ccc(N2CCN(C(=O)C3CCCN(c4ccncc4)C3)CC2)cc1 (stereo unspecified) | 593
CCCCCc1c(C)nn(-c2nc(CC(=O)Nc3nc4ccccc4[nH]3)cs2)c1C | 995
CCC(C)NC(=O)C1CCN(C(=O)Nc2ccc(NC(=O)Nc3ccccc3)cc2)CC1 (stereo unspecified) | 748
Cc1cc(=O)n(CC(=O)Nc2cccc(Cl)c2)c(N2CCc3ccccc3C2)n1 | 859
CCN(Cc1ccccc1)Cc1nc(-c2ccc(N3CCCC(C)C3)nc2)no1 (stereo unspecified) | 1020
O=C(NC1CC1)c1nnc(-c2ccc(S(=O)(=O)N3CCCCC3)cc2)o1 | 804
Cc1ccc(CNC(=O)C2CCN(C(=O)N3CCOc4ccc(Cl)cc43)CC2)cc1 | 919
CCCn1cc(C(=O)N2CCc3ccccc32)c2nn(-c3ccccc3)c(=O)c-2c1 | 840
CCCNS(=O)(=O)c1cc(-c2nnc(-c3ccc(OC)c(OC)c3)o2)ccc1C | 901
O=C(Nc1ccccc1F)c1cccn1Cc1noc(-c2ccccc2)n1 | 1010
CCOc1ccc(NCC(O)Cn2c3ccccc3n3c(=O)cc(C)c(C#N)c23)cc1 (stereo unspecified) | 668
c1ccc(OCc2nc(-c3ccc(-n4ccnc4)nc3)no2)cc1 | 689
CCOc1ccc(NC(=O)c2oc3ccc(Cl)cc3c2C)c2cccnc12 | 789
O=c1ccc(-n2ccnc2)nn1CCNS(=O)(=O)Cc1cc(F)ccc1F | 555
CCN(CC)C(=O)CN1C(=O)C2(NC(C)C3C(=O)N(Cc4ccccc4)C(=O)C32)c2ccccc21 (stereo unspecified) | 857
CSc1cccc(NC(=O)C2CCN(c3nccc(C)n3)CC2)c1 | 700
O=C(NCCc1csc(C2CCCN(C(=O)C3CCCC3)C2)n1)C1CC1 (stereo unspecified) | 696
O=C(NCc1ccc(Cl)cc1)C1CCN(c2cnc(N3CCCC3)nc2)CC1 | 712
O=C(NCc1cnoc1-c1ccc(F)cc1)c1ccc2c(c1)OCO2 | 881
COC(=O)C(NC(=O)N1CCCn2nc(-c3cccnc3)cc2C1)c1ccccc1 (stereo unspecified) | 616

SMILES | RP-LC retention time [s]
CCN1CCCn2cc(S(=O)(=O)NC3CCN(Cc4ccccc4)CC3)cc2C1=O | 597
Cc1nc(C)c(-c2ccc(=O)[nH]n2)s1 | 558
CCC1=C(c2ccc(C)cc2)S(=O)(=O)N=C1N1CCC(C(=O)N2CCN(C)CC2)CC1 | 641
C=CCNCc1ccc(-c2cccc(C(F)(F)F)c2)o1 | 714
O=S(=O)(c1ccc(N2CCN(c3ccccn3)CC2)nn1)C1CCCCC1 | 608
Cc1ccc2[nH]cc(CCNC(=O)CC3CCN(C(=O)NC4CCCCC4)CC3)c2c1 | 808
CCC(C(=O)Nc1ccc(C)cc1)n1cnc2nc3c(cc2c1=O)CCCC3 (stereo unspecified) | 756
CCc1ccc(C2=C(C)C(N3CCCN(C(=O)NC)CC3)=NS2(=O)=O)cc1 | 746
COC(=O)C1C(=O)C2=C(CC1C)NC(C)=C(C(=O)OC(C)C)C2c1ccccc1F (stereo unspecified) | 954
Cc1noc(-c2cc(=O)n(CC(=O)Nc3cccc(C#N)c3)c3ccccc23)n1 | 831
O=C(Cc1nnc(-c2ccc3ncccc3c2)o1)NCc1ccc(Cl)cc1 | 721
Cc1ccc2nc(-c3c(F)cccc3Cl)c(Nc3ccc4c(c3)OCO4)n2c1 | 700
O=C(Cn1nc2nc(N3CCCC3)ccn2c1=O)Nc1ccc(F)c(Cl)c1 | 708
CN(C)[C@@H]1CN(Cc2ccc(Br)o2)CC[C@@H]1CNC(=O)C1CC1 | 574
COc1cccc(CN2CCc3nn(CC4CC4)c(=O)n3CC2)n1 | 595
CCN(CC)S(=O)(=O)c1ccc2c(c1)CC(C(=O)NCCC(C)C)N2C(C)=O (stereo unspecified) | 848
CCOc1ccc(Nc2cc(C(=O)N3CCCC(C)C3)nc3ccc(C)cc23)cc1 (stereo unspecified) | 776
Clc1ccc2nc3ccccc3cc2c1 | 842
CCN(CC)S(=O)(=O)c1ccc(Cl)c(-c2nnc(-c3cccc(C)c3)o2)c1 | 1170
Cn1c(N2CCC(C(=O)N3CCN(c4ccc(F)cc4)CC3)CC2)cc(=O)n(C)c1=O | 704
O=C(NCCC1=CCCCC1)C1CCN(C(=O)c2ncn3c2COC(c2ccc(Cl)cc2)C3)CC1 (stereo unspecified) | 911
CC1Oc2ccccc2N(Cc2nc(-c3ccc(Cl)cc3)no2)C1=O (stereo unspecified) | 1160

SMILES | RP-LC retention time [s]
CCOc1ccc(NC(=O)C2CC(=O)N(CCc3c[nH]c4ccc(F)cc34)C2)cc1 (stereo unspecified) | 811
COCC(=O)N(C1CCOCC1)C1CCN(S(=O)(=O)c2cccc(F)c2)CC1 | 758
CN1CCN(CCNC(=O)c2ccc3c(c2)N(S(=O)(=O)c2ccccc2F)CC3)CC1 | 617
CCCN1C(=O)CCc2cc(NC(=O)c3ccn(CC)n3)ccc21 | 756
Cc1cc(C)c(NC(=O)Cn2cnc3onc(C)c3c2=O)c(C)c1 | 764
Cc1ccc(-n2nc3c(N4CCN(C(=O)NC(C)C)CC4)nnc(C)c3c2C)cc1 | 675
Cc1cccc(NC(=O)C2CCN(C(=O)C3Sc4ccccc4NC3=O)CC2)c1 (stereo unspecified) | 790
CCNC(=O)C[C@@H]1N=C(c2ccc(Cl)cc2)c2cc(OC)ccc2-n2c(C)nnc21 | 797
COc1ccc(NC(=O)N2CCN(c3nc4ccncc4n(CC(C)C)c3=O)CC2)cc1 | 587
CCc1nc(-c2csc(S(=O)(=O)N3CCC(C(=O)NC(C)CC)CC3)c2)no1 (stereo unspecified) | 854
CCC1CCCCN1CCCNC(=O)c1cc(S(=O)(=O)N2CCCC2)ccc1Cl (stereo unspecified) | 661
COc1ccc(C)cc1NC(=O)C1CCN(c2nc(C3CCC3)nc3csc(C)c23)CC1 | 847
O=C(NCc1ccco1)c1ccc(NC(=O)C2CCC2)cc1N1CCCCC1 | 763
CCOC(=O)c1c(C)[nH]c(CCC(=O)NCC2CCCO2)c1C (stereo unspecified) | 686
COc1ccc(-c2noc(-c3ccc(N4CCN(c5ncccn5)CC4)nn3)n2)cc1 | 923
Cc1nc2c(sc3nc(-c4ccccc4)ccc32)c(=O)n1CC(=O)Nc1ccccc1F | 982
O=C(CN1CCN(c2ncccn2)CC1)N1c2ccccc2Sc2ccccc21 | 602
COc1ccc(C(=O)Nc2c(-c3ccccc3)nc3ccccn23)c(OC)c1 | 664
COc1ccc(-c2c(C)noc2NC(C)=O)cc1S(=O)(=O)N1CCCc2ccccc21 | 856
Cc1nc(-c2cnccn2)nc2c1CCC(=O)N2Cc1ccc(F)cc1 | 732
CC(=O)c1ccc(N2CCN(C(=O)CN3C(=S)NC(C)(C)CC3C)CC2)cc1 (stereo unspecified) | 716
Cc1ccc(S(=O)(=O)N2CCC(C(=O)NC(C)C(=O)N3CCCc4ccccc43)CC2)cc1 (stereo unspecified) | 902
